Tests used:
[1] = system: Mycosphaerella arachidis (Cercospora arachidicola); experiment: Mycosphaerella arachidis (Cercospora arachidicola) / liquid culture (early leaf spot); assay type: cell-based; details: growth inhibition photometrically 4 to 5 days after application, read-out: control of Mycosphaerella arachidis
Procedure: (§1) Example B6: Mycosphaerella arachidis (Cercospora arachidicola)/Liquid Culture (Early Leaf Spot) Conidia of the fungus from cryogenic storage are directly mixed into nutrient broth (PDB potato dextrose broth). After placing a (DMSO) solution of test compound into a microtiter plate (96-well format), the nutrient broth containing the fungal spores is added. The test plates are incubated at 24° C. and the inhibition of growth is determined photometrically 4 to 5 days after application.

[2] = system: Mycosphaerella graminicola (Septoria tritici); experiment: Mycosphaerella graminicola (Septoria tritici) / liquid culture (Septoria blotch); assay type: cell-based; details: Zymoseptoria tritici, growth inhibition photometrically 4 to 5 days after application, read-out: control of Mycosphaerella graminicola
Procedure: as §1, with “B12:” for “B6:”, “graminicola (Septoria tritici)/Liquid” for “arachidis (Cercospora arachidicola)/Liquid”, “(Septoria Blotch)” for “(Early Leaf Spot)”

[3] = system: Monographella nivalis (Microdochium nivale); experiment: Monographella nivalis (Microdochium nivale) / liquid culture (foot rot cereals); assay type: cell-based; details: growth inhibition photometrically 4 to 5 days after application, read-out: control of Monographella nivalis
Procedure: as §1, with “B5: Monographella nivalis (Microdochium nivale)/Liquid” for “B6: Mycosphaerella arachidis (Cercospora arachidicola)/Liquid”, “(Foot Rot Cereals)” for “(Early Leaf Spot)”

Pyrenophora teres = Pyrenophora teres / barley / leaf disc preventative (net blotch); assay type: in vivo; details: 200 ppm, compared to untreated control
Procedure: Example B9: Pyrenophora teres/Barley/Leaf Disc Preventative (Net Blotch) Barley leaf segments cv. Hasso are placed on agar in a multiwell plate (24-well format) and sprayed with the formulated test compound diluted in water. The leaf segments are inoculated with a spore suspension of the fungus 2 days after application. The inoculated leaf segments are incubated at 20° C. and 65% rh under a light regime of 12 h light/12 h darkness in a climate cabinet and the activity of a compound is assessed as disease control compared to untreated when an appropriate level of disease damage appears in untreated check leaf segments (5 to 7 days after application).

[4] = system: Phaeosphaeria nodorum (Septoria nodorum); experiment: Phaeosphaeria nodorum (Septoria nodorum) / wheat / leaf disc preventative (glume blotch); assay type: in vivo; details: 200 ppm, compared to untreated control
Procedure: Example B4: Phaeosphaeria Nodorum (Septoria nodorum)/Wheat/Leaf Disc Preventative (Glume Blotch) Wheat leaf segments cv. Kanzler are placed on agar in a multiwell plate (24-well format) and sprayed with the formulated test compound diluted in water. The leaf disks are inoculated with a spore suspension of the fungus 2 days after application. The inoculated test leaf disks are incubated at 20° C. and 75% rh under a light regime of 12 h light/12 h darkness in a climate cabinet and the activity of a compound is assessed as percent disease control compared to untreated when an appropriate level of disease damage appears in untreated check leaf disks (5 to 7 days after application).

[5] = system: Thanatephorus cucumeris (Rhizoctonia solani); experiment: Thanatephorus cucumeris (Rhizoctonia solani) / liquid culture (foot rot, damping-off); assay type: cell-based; details: 20 ppm, growth inhibition photometrically 3 to 4 days after application
Procedure: Example B11: Thanatephorus cucumeris (Rhizoctonia solani)/Liquid Culture (Foot Rot, Damping-Off) Mycelia fragments of a newly grown liquid culture of the fungus are directly mixed into nutrient broth (PDB potato dextrose broth). After placing a (DMSO) solution of the test compounds into a microtiter plate (96-well format), the nutrient broth containing the fungal material is added. The test plates are incubated at 24° C. and the inhibition of growth is determined photometrically 3 to 4 days after application.

Pythium ultimum = Pythium ultimum / liquid culture (seedling damping off); assay type: cell-based; details: 20 ppm, growth inhibition photometrically 2 to 3 days after application
Procedure: Example B10: Pythium ultimum/Liquid Culture (Seedling Damping Off) Mycelia fragments and oospores of a newly grown liquid culture of the fungus are directly mixed into nutrient broth (PDB potato dextrose broth). After placing a (DMSO) solution of test compound into a microtiter plate (96-well format), the nutrient broth containing the fungal mycelia/spore mixture is added. The test plates are incubated at 24° C. and the inhibition of growth is determined photometrically 2 to 3 days after application.

[6] = system: Puccinia recondita f. sp. tritici; experiment: Puccinia recondita f. sp. tritici / wheat / leaf disc curative (brown rust); assay type: in vivo; details: 200 ppm, applied 1 day after inoculation
Procedure: Example B7: Puccinia recondita f. Sp. Tritici/Wheat/Leaf Disc Curative (Brown Rust) Wheat leaf segments cv. Kanzler are placed on agar in multiwell plates (24-well format). The leaf segments are inoculated with a spore suspension of the fungus. Plates are stored in darkness at 19° C. and 75% rh. The formulated test compound diluted in water is applied 1 day after inoculation. The leaf segments are incubated at 19° C. and 75% rh under a light regime of 12 h light/12 h darkness in a climate cabinet and the activity of a compound is assessed as percent disease control compared to untreated when an appropriate level of disease damage appears in untreated check leaf segments (6 to 8 days after application).

Row | SMILES | inhibition of growth at 20 ppm [1] [%] | inhibition of growth at 20 ppm [2] [%] | inhibition of growth at 20 ppm [3] [%] | control of Pyrenophora teres (Pyrenophora teres) | control of Phaeosphaeria nodorum [4] | control of Thanatephorus cucumeris [5] | control of Pythium ultimum (Pythium ultimum) | control of Puccinia recondita f sp. tritici [6]
1 | O=C(c1cc(-c2ccc(F)cc2F)on1)N1Cc2cccc(F)c2C(c2cccnc2)C1 (centres unmarked) [Compound P-9, [5-(2,4-difluorophenyl)isoxazol-3-yl]-[5-fluoro-4-(3-pyridyl)-3,4-dihydro-1H-isoquinolin-2-yl]methanone] | ≥ 80 | ≥ 80 | ≥ 80 | – | – | – | – | –
2 | O=C(c1cc(-c2ccc(F)cc2F)on1)N1Cc2c(F)cccc2C(c2cccnc2)C1 (centres unmarked) [Compound P-1, [5-(2,4-difluorophenyl)isoxazol-3-yl]-[8-fluoro-4-(3-pyridyl)-3,4-dihydro-1H-isoquinolin-2-yl]methanone] | ≥ 80 | ≥ 80 | ≥ 80 | at least 80% | – | – | – | –
3 | O=C(c1cc(-c2ccccc2)on1)N1Cc2ccccc2C(c2cccnc2)C1 (centres unmarked) [Compound P-6, (5-phenylisoxazol-3-yl)-[4-(3-pyridyl)-3,4-dihydro-1H-isoquinolin-2-yl]methanone] | ≥ 80 | ≥ 80 | ≥ 80 | – | – | – | – | –
4 | Cn1nc(C2CN(C(=O)c3cc(-c4ccc(F)cc4F)on3)Cc3ccccc32)cc1Cl (centres unmarked) [Compound P-7, [4-(5-chloro-1-methyl-pyrazol-3-yl)-3,4-dihydro-1H-isoquinolin-2-yl]-[5-(2,4-difluorophenyl)isoxazol-3-yl]methanone] | ≥ 80 | ≥ 80 | ≥ 80 | – | at least 80% | – | – | –
5 | O=C(c1cc(-c2ccc(F)cc2F)on1)N1Cc2ccccc2C(c2cccnc2)C1 (centres unmarked) [Compound P-5, [5-(2,4-difluorophenyl)isoxazol-3-yl]-[4-(3-pyridyl)-3,4-dihydro-1H-isoquinolin-2-yl]methanone] | ≥ 80 | ≥ 80 | ≥ 80 | – | – | – | – | –
6 | O=C(c1cc(-c2ccc(F)cc2F)on1)N1Cc2ccccc2C(c2ccncc2)C1 (centres unmarked) [Compound P-2, [5-(2,4-difluorophenyl)isoxazol-3-yl]-4-[4-(4-pyridyl)-3,4-dihydro-1H-isoquinolin-2-yl]methanone] | – | ≥ 80 | ≥ 80 | – | – | at least 80% | at least 80% | –
7 | Cc1ccc(C2CN(C(=O)c3cc(-c4ccc(F)cc4F)on3)Cc3ccccc32)cn1 (centres unmarked) [Compound P-3, [5-(2,4-difluorophenyl)isoxazol-3-yl]-[4-(6-methyl-3-pyridyl)-3,4-dihydro-1H-isoquinolin-2-yl]methanone] | ≥ 80 | ≥ 80 | ≥ 80 | – | – | – | – | –
8 | O=C(c1cc(-c2ccc(F)cc2F)on1)N1Cc2ccccc2C(c2cnccn2)C1 (centres unmarked) [Compound P-8, [5-(2,4-difluorophenyl)isoxazol-3-yl]-(4-pyrazin-2-yl-3,4-dihydro-1H-isoquinolin-2-yl]methanone] | ≥ 80 | ≥ 80 | ≥ 80 | – | – | – | – | –
9 | Cc1c(C2CN(C(=O)c3nnc(-c4ccc(F)cc4F)s3)Cc3ccccc32)nc(Cl)n1C (centres unmarked) [Compound P-11, [4-(2-chloro-1,5-dimethyl-imidazol-4-yl)-3,4-dihydro-1H-isoquinolin-2-yl]-[5-(2,4-difluorophenyl)-1,3,4-thiadiazol-2-yl]methanone] | ≥ 80 | ≥ 80 | – | – | – | – | – | –
10 | O=C(c1cc(-c2ccc(F)cc2F)on1)N1Cc2ccccc2C(c2ccc(F)nc2)C1 (centres unmarked) [Compound P-12, [5-(2,4-difluorophenyl)isoxazol-3-yl]-[4-(6-fluoro-3-pyridyl)-3,4-dihydro-1H-isoquinolin-2-yl]methanone] | – | ≥ 80 | ≥ 80 | – | – | – | – | –
11 | Cc1c(C2CN(C(=O)c3cc(-c4ccc(F)cc4F)no3)Cc3ccccc32)cc(C#N)n1C (centres unmarked) [Compound P-19, 4-[2-[3-(2,4-difluorophenyl)isoxazole-5-carbonyl]-3,4-dihydro-1H-isoquinolin-4-yl]-1,5-dimethyl-pyrrole-2-carbonitrile] | – | ≥ 80 | – | – | – | – | – | at least 80%
12 | O=C(c1cc(-c2ccc(F)cc2F)on1)N1Cc2ccccc2C(c2ccccn2)C1 (centres unmarked) [Compound P-15, [5-(2,4-difluorophenyl)isoxazol-3-yl]-[4-(2-pyridyl)-3,4-dihydro-1H-isoquinolin-2-yl]methanone] | – | ≥ 80 | ≥ 80 | – | – | – | – | –
13 | O=C(c1cc(-c2ccc(F)cc2F)on1)N1Cc2ccccc2C(c2cncnc2)C1 (centres unmarked) [Compound P-4, [5-(2,4-difluorophenyl)isoxazol-3-yl]-(4-pyrimidin-5-yl-3,4-dihydro-1H-isoquinolin-2-yl)methanone] | ≥ 80 | ≥ 80 | ≥ 80 | – | – | – | – | –

Source: patent US20260200905A1, “MICROBIOCIDAL TETRAHYDROISOQUINOLINE DERIVATIVES” (SYNGENTA CROP PROTECTION AG, priority 2022, published 2026)
